This is an account of results in patent US9981961B2, “Deoxycytidine kinase inhibitors” (The Regents of the University of California, priority 2013, dated 2018).

The target of one series is dCK in CCRF-CEM cells (Homo sapiens, UniProt P27707). The series is described as follows: cell-based. To be noted: for IC50: IC50 (nM), Table 3, inhibition of 3H-deoxycytidine (dCyd) uptake in CEM cells, mean ± SD of n ≥ 2 unless (n = 1); for pIC50: assay and unit inferred.
A short description of a further series: in vitro. To be noted: human, microsomes.
A further series concerns the target dCK activity in liver (Mus musculus, UniProt P43346). The series is described as follows: 18F-L-FAC PET liver assay of in vivo dCK inhibition. Particulars: mice.
Series [1] is described as follows: Pharmacokinetics of DI-39 in plasma and tumor tissue (LC/MS/MS-MRM). To be noted: mouse, ip. The format is in vivo. How it is done:
To determine the pharmacokinetic profile of DI-39, C57Bl/6 female mice were dosed with DI-39 via intraperitoneal injection following the protocol that was described previously (Murphy et al., 2013). Dose formulation include 10% DMSO and 40% Captisol (SBE-β-CD, a polyanionic variably substituted sulfobutyl ether of β-cyclodextrin, (Stella and He, 2008)) in water. Approximately 75 μL of whole blood was obtained at various time points starting 5 to 360 minutes through retro-orbital sinus bleed using hematocrit capillary tubes. Approximated values of the Area Under the Curve (AUC), clearance rate (CL), half-life (T1/2), maximum concentration in the plasma (Cmax) and time to reach the maximum concentration (Tmax) were calculated using Boomer/Multi-Forte P K Functions from Microsoft Excel.
For the DI-39 tumoral and plasma uptake study using LC/MS/MS-MRM, tumor-bearing NSG mice were injected with 50 mg/kg DI-39 intraperitoneally at 0, 2, 4, 8 and 12 hours prior to sacrifice. […] The ion transitions for DI-39 and DI-70 (525.2→383.3 and 550.2→408.2 respectively) were recorded under previously optimized conditions. […]

Series [2] has as its system dCTP and dTTP pools of CEM cells. The series is described as follows: Intracellular dNTP pool measurement in CEM cells. The format is cell-based, human. Particulars: 24 hr, DI-39 1 μM, dT 50 μM, or both.
A short description of series [3]: Tolerability in NSG mice (body weight, peripheral blood counts). Particulars: twice/day for 7 days, alone or in combination with dT. The format is in vivo. From the text:
All mice were anesthetized and whole blood was obtained through cardiac puncture. For peripheral blood counts, samples were collected in tubes containing EDTA and submitted to UCLA Division of Lab Animal Medicine for analysis.

The next series can be described thus: Solubility statement. It is filed as physicochemical.
Where [4] appears, read: IC50, Example 4 list, values correspond to the CEM 3H-dC uptake data of Tables 3 and 7.
Where [5] appears, read: IC50, Example 5 list, values correspond to the CEM data of Table 3.

SMILES strings stand for the structures. pIC50: −log10 of the molar value.

dCK in CCRF-CEM cells, sequence (P27707 whole entry): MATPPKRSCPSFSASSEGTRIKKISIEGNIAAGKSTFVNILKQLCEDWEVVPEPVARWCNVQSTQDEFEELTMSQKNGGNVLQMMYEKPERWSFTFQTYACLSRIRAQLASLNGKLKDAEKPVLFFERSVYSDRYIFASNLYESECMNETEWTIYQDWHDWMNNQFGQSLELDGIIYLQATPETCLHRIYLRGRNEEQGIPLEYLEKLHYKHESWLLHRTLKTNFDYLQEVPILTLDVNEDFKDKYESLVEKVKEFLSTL
dCK activity in liver, sequence (P43346 whole entry): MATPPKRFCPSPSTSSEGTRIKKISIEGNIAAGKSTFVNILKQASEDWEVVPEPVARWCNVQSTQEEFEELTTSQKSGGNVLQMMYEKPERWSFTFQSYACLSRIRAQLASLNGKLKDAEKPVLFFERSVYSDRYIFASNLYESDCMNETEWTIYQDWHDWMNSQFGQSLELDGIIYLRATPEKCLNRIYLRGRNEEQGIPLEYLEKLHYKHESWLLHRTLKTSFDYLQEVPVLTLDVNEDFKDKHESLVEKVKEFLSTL
Protocol for dCK activity in liver: Evaluation of In Vivo Inhibition of dCK Activity Via a New PET PD Assay. […] Four hours later, treated mice were injected intravenously with ^18F-L-FAC; one hour after probe injection, mice were imaged by mPET/CT. The readout for the PET PD assay was the reduction in the accumulation of ^18F-L-FAC in dCK-positive tissues in dCK inhibitor versus vehicle treated mice. […] Since the reproducibility in the dCK-dependent tissue retention of ^18F-L-FAC was most consistent in the liver^27, we chose to quantify ^18F-L-FAC liver retention in order to compare the in vivo efficacy of the various dCK inhibitors.
In Vivo MicroPET/CT Imaging Studies. […] Four hours post-treatment mice were injected intravenously with 70 μCi of ^18F-L-FAC. For all mPET/CT studies, a 1 h interval was allowed between probe administration and mPET/CT scanning (Inveon, Siemens Medical Solutions USA Inc.; microCAT, Imtek Inc.). Static mPET images were acquired for 600 s. Images were analyzed using OsiriX Imaging Software Version 3.8.
Protocol for dCK in CCRF-CEM cells: These were performed in CCRF-CEM acute lymphoblastic leukemia cells as previously described.^8, 9
dCK Uptake Assay Performed in Cell Culture. […] For the uptake assays cells were seeded at a density of 50,000 cells/well in Millipore MultiScreen GV 96 well plates. […] After 1 h at 37° C., cells were washed four times with ice cold phosphate-buffered saline (PBS) using the Millipore Vacuum Manifold. The amount of incorporated probe was measured by scintillation counting with the PerkinElmer Microbeta.

The molecule `CCCc1sc(-c2ccc(OCCOCCOCCOC)c(OCC)c2)nc1CSc1nc(N)cc(N)n1` [Compound S21] gave an IC50 against dCK in CCRF-CEM cells of 2.37 nM. Also, the pIC50 on dCK in CCRF-CEM cells (setting [4]) was 8.63. As for `CCCc1sc(-c2ccnc(OCCNS(C)(=O)=O)c2)nc1CSc1nc(N)cc(N)n1` [DI-46], on dCK in CCRF-CEM cells (setting [4]), the pIC50 is 5.93. Take `CCCc1sc(-c2ccc(OC)c(OCCF)c2)nc1CCc1nc(N)cc(N)n1` [Compound S15]: the IC50 at dCK in CCRF-CEM cells came out at 664 nM. The molecule further showed a pIC50 at dCK in CCRF-CEM cells (setting [4]) of 6.18.

As for `CCCc1sc(-c2ccnc(OCCF)c2)nc1CSc1nc(N)cc(N)n1` [Compound S7], at dCK in CCRF-CEM cells, half-maximal inhibition (IC50) was put at 6.8 nM. Moreover, the pIC50 against dCK in CCRF-CEM cells (setting [4]) is 8.16.

The molecule `CCCc1sc(-c2ccc(OC)c(OCCOCCOCCF)c2)nc1CSc1nc(N)cc(N)n1` [Compound S16] displayed an IC50 on dCK in CCRF-CEM cells of 4.22 nM. The pIC50 on dCK in CCRF-CEM cells (setting [4]) is 8.38. As for `COCCOCCOCCOc1cc(-c2nc(CSc3nc(N)cc(N)n3)c(C)s2)ccc1OC` [Compound S26], at dCK in CCRF-CEM cells, the midpoint of inhibition, the IC50, lay at 9.1 nM. This molecule also had a pIC50 on dCK in CCRF-CEM cells (setting [4]) of 8.03. The corresponding values for `CCCc1sc(-c2ccc(OC)c(OCCOCCOCCSc3nc(N)cc(N)n3)c2)nc1CSc1nc(N)cc(N)n1` [Compound S10] are 4.7 nM and 8.32. `Cc1sc(-c2cc(F)cc(OCCNS(C)(=O)=O)c2)nc1C(C)Sc1nc(N)cc(N)n1` (stereo not drawn) [Compound S31] gave an IC50 at dCK in CCRF-CEM cells of 9.07 nM. Same read-out and setting: in the case of `COCCOCCOCCOc1cc(-c2nc(C(C)Sc3nc(N)cc(N)n3)c(-c3ccccc3)s2)ccc1OC` (stereo not drawn) [Compound S28] it was 98.9 nM. Regarding `COCCOCCOCCOc1cc(-c2nc(C(C)Sc3nc(N)cc(N)n3)c(C)s2)ccc1OC` (stereo not drawn) [Compound S23], at dCK in CCRF-CEM cells, the IC50 stood at 8.03 nM. In addition, the pIC50 against dCK in CCRF-CEM cells (setting [5]) was 8.10. Take `CCCc1sc(-c2cc(F)cc(OCCOCCOCCF)c2)nc1CSc1nc(N)cc(N)n1` [Compound S19]: at dCK in CCRF-CEM cells, the IC50 came to 33.7 nM. In addition, the pIC50 against dCK in CCRF-CEM cells (setting [4]) was 7.47. The corresponding values for `CCCc1sc(-c2ccc(OC)c(OCCCF)c2)nc1CSc1nc(N)cc(N)n1` [Compound S3] are 2.5 nM and 8.60. Molecule `CCCc1sc(-c2ccc(OC)c(OCCO)c2)nc1CSc1cc(N)nc(N)n1` [DI-42] had a pIC50 against dCK in CCRF-CEM cells (setting [4]) of 6.48. Molecule `COc1cc(-c2cc(CSc3nc(N)cc(N)n3)c(C)o2)ccc1OCCF` [Compound S14] yielded an IC50 against dCK in CCRF-CEM cells of 276 nM. For the same molecule, at dCK in CCRF-CEM cells (setting [4]), the pIC50 is 6.56. For the molecule `CCCc1sc(-c2ccc(N(CCNS(C)(=O)=O)S(C)(=O)=O)c(OCCNS(C)(=O)=O)c2)nc1CSc1nc(N)cc(N)n1` [Compound S2], at dCK in CCRF-CEM cells, 1200 nM corresponded to half-maximal inhibition (IC50). The pIC50 against dCK in CCRF-CEM cells (setting [4]) is 5.92. Take `COCCOCCOCCOc1ccc(-c2nc(C(C)Sc3nc(N)cc(N)n3)c(C)s2)cc1OC` (stereo not drawn) [Compound S24]: the IC50 against dCK in CCRF-CEM cells amounted to 6.1 nM. Moreover, the pIC50 on dCK in CCRF-CEM cells (setting [5]) is 8.21. Turning to `[2H]C([2H])(Sc1nc(N)cc(N)n1)c1nc(-c2ccnc(OCCF)c2)sc1CCC` [Compound S8], inhibition against dCK in CCRF-CEM cells was half-maximal at 30 nM (IC50). This molecule showed a pIC50 against dCK in CCRF-CEM cells (setting [4]) of 7.52. For `COc1ccc(-c2cc(CSc3nc(N)cc(N)n3)c(C)o2)cc1OCCF` [Compound S12] the same measures were 13500 nM and 4.86. In the series “in vitro”, `COc1ccc(-c2nc(CSc3nc(N)cc(N)n3)c(C)s2)cc1OCCF` [Compound 15a, 2-(((2-(3-(2-fluoroethoxy)-4-methoxyphenyl)-5-methylthiazol-4-yl)methyl)thio)pyrimidine-4,6-diamine] showed a half-life at 1 μM of 16.3 min and a microsomal CLint at 1 μM of 142 µL/min/mg. On dCK in CCRF-CEM cells, `COCCOCCOCCOc1cc(-c2nc(C(C)Sc3nc(N)cc(N)n3)c(C3CC3)s2)ccc1OC` (stereo not drawn) [Compound S27] showed an IC50 of 3.7 nM. The molecule further had a pIC50 at dCK in CCRF-CEM cells (setting [5]) of 8.61. Besides, the “outcome in the PET L-FAC liver assay” value on dCK activity in liver is reported as “failed”. At dCK in CCRF-CEM cells, `CCCc1sc(-c2ccc(OCCF)c(OCC)c2)nc1CSc1nc(N)cc(N)n1` [Compound S4] showed an IC50 of 2.8 nM. For the same molecule, the pIC50 on dCK in CCRF-CEM cells (setting [4]) is 8.54.

The molecule `CCCc1sc(-c2cccc(OCCOCCOCCF)c2)nc1CSc1nc(N)cc(N)n1` [Compound S17] yielded an IC50 against dCK in CCRF-CEM cells of 69.1 nM. In addition, on dCK in CCRF-CEM cells (setting [4]), the pIC50 was 7.16.

`COc1cc(-c2cc(CSc3nc(N)cc(N)n3)c(C)s2)ccc1OCCF` [Compound S18]: the midpoint of inhibition on dCK in CCRF-CEM cells, the IC50, lay at 262 nM. On dCK in CCRF-CEM cells (setting [4]), this molecule showed a pIC50 of 6.58. `CCCc1sc(-c2ccc(OC)c(OCCNS(C)(=O)=O)c2)nc1CSc1nc(N)cc(N)n1` [Compound 37, N-(2-(5-(4-(((4,6-diaminopyrimidin-2-yl)thio)methyl)-5-propylthiazol-2-yl)-2-methoxyphenoxy)ethyl)methanesulfonamide] returned a half-life in series [1] (female, plasma, C57Bl/6 mice, intraperitoneal injection) of about 50 min. The concentration at 8 hr in series [1] (8 hr after single dose administration, 50 mg/kg intraperitoneal, CEM tumor-bearing NSG mice, read-out: drug present in tumor tissues) was about 0.015 µM. Also, in series [2], the “decrease of dCTP pool” value is about 30%. Moreover, in series [3], the “effect on body weight” value is given as “did not affect body weight” and the “effects on RBCs, hemoglobin, platelets or neutrophils” value is recorded as “no detectable effects”. In addition, the “solubility in aqueous saline solutions” value in the series “Solubility statement” is on record as “limited solubility”.

In turn, `COCCOCCOCCOc1cc(-c2nc(CSc3nc(N)cc(N)n3)c(C(Sc3nc(N)cc(N)n3)c3ccccc3)s2)ccc1OC` (stereo not drawn) [DI-78] gave a negative logarithm of the IC50 (pIC50) against dCK in CCRF-CEM cells (setting [4]) of 5.78. In turn, `CCCc1sc(-c2ccc(OC)c(OCCOCCOCCOC)c2)nc1C(C)Sc1nc(N)cc(N)n1` (stereo not drawn) [Compound S22] displayed an IC50 on dCK in CCRF-CEM cells of 6 nM. For the same molecule, the pIC50 on dCK in CCRF-CEM cells (setting [5]) is 8.22. For `CCCc1sc(-c2ccc(F)c(OCCCF)c2)nc1CSc1nc(N)cc(N)n1` [Compound S5], the IC50 at dCK in CCRF-CEM cells came out at 31.7 nM. Further, on dCK in CCRF-CEM cells (setting [4]), the pIC50 is 7.50.

Turning to `CCCc1sc(-c2ccc(OC)c(OCCOCCOCCO)c2)nc1CSc1nc(N)cc(N)n1` [Compound S11], at dCK in CCRF-CEM cells, the IC50 was determined as 1.06 nM. For the same molecule, at dCK in CCRF-CEM cells (setting [4]), the negative logarithm of the IC50 (pIC50) was 8.97. For `COCCOCCOCCOc1cc(-c2nc(CSc3nc(N)cc(N)n3)c(C3CC3)s2)ccc1OC` [Compound S25] the same measures were 23 nM and 8.28. For `CCCc1sc(-c2ccc(OC)c(OCCOCCOCCOC)c2)nc1CSc1nc(N)cc(N)n1` [Compound S20, 2-(((2-(4-methoxy-3-(2-(2-(2-methoxyethoxy)ethoxy)ethoxy)phenyl)-5-propylthiazol-4-yl)methyl)thio)pyrimidine-4,6-diamine] the same measures were 3.31 nM and 8.48. With `COc1cc(-c2cc(CSc3nc(N)cc(N)n3)sc2C)ccc1OCCF` [DI-63], on dCK in CCRF-CEM cells (setting [4]), the pIC50 was 5.80. Regarding `CCCc1sc(-c2ccc(F)c(OCCF)c2)nc1CSc1nc(N)cc(N)n1` [Compound S6], it took 23.3 nM to reach half-maximal inhibition on dCK in CCRF-CEM cells (IC50). This molecule also showed a pIC50 against dCK in CCRF-CEM cells (setting [4]) of 7.63.

What is called IC50 is the midpoint of a concentration-inhibition curve. For orientation: pIC50 means the negative decadic logarithm of the IC50, by convention in mol/L. Read a low pIC50 as a large IC50. As a reminder, the half-life is how long it takes for the measured level to halve. Low values mean rapid decline, high ones slow decline. The term microsomal CLint denotes the capacity of the preparation to metabolise the compound, expressed as a volume cleared per time.
